Consider four compounds from patent US8562949B2, “Radiolabeled dihydrotetrabenazine derivatives and their use as imaging agents” (The Trustees of the University of Pennsylvania, priority 2006, dated 2013).

“And” between values parts separate entries of the source, which are not always exact repeats. Identical values can stand only once. Where only a bound is given, the exact number is not on record here.

In one series the target is monoamine transporter (UniProt Q27963). Conditions: membranes of chromaffin granules and brain tissue samples; cited from earlier work.
Series [1] concerns the target T1, VMAT2 (Mus musculus, UniProt Q8BRU6). Nature of the series: In vitro autoradiography of mouse brain sections. The format is binding.
Series [2] in a line: Uptake in diabetic mice (FIG. 6). The format is in vivo.
In series [3] the target is VMAT2 (Rattus norvegicus, UniProt Q01827). Put plainly: Competition for [3H](±)TBZ binding in rat striatal homogenates. Further details: The basal forebrain regions of rat and mouse brains were then dissected; from tissue; host or cells: rat striatum / basal forebrain homogenate. Conditions: [3H](±)TBZ 1.0-1.5 nM, Kd […] used for calculation.
Sequence of VMAT2 (Rattus norvegicus, UniProt Q01827) (Q01827 whole entry): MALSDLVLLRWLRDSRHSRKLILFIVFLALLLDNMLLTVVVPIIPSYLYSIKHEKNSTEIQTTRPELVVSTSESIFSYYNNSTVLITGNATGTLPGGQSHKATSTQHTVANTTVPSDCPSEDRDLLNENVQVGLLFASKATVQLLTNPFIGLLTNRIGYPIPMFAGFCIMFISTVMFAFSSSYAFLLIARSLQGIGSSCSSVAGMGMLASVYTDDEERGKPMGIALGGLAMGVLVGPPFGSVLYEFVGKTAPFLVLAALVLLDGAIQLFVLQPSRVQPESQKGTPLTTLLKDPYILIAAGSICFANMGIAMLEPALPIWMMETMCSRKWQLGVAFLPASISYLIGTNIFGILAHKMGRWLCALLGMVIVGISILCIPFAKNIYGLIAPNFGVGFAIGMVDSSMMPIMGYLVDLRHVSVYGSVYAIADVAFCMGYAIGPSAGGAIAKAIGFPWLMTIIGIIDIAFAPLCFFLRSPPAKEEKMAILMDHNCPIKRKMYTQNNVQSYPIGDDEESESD
In series [4] the target is T1, VMAT2. Put plainly: Saturation binding of 18F ligands in mouse striatal homogenates. Also on record: The basal forebrain regions of rat and mouse brains were then dissected; from tissue; host or cells: mouse striatal homogenate; mouse brain coronal sections. Conditions: estimated based on S.A.=2000 Ci/mmole. As to the method:
The basal forebrain regions of rat and mouse brains were then dissected. The tissue homogenates were prepared in 50 mM Hepes, pH 7.5 and 0.3 M sucrose. The specific binding of ^3H or ^18F ligands were determined following the procedures described (Scherman D, Raisman R, Ploska A, Agid Y., [^3H]Dihydrotetrabenazine, a new in vitro monoaminergic probe for human brain, J. Neurochem., 1988:50:1131-36). Total volume of reaction for the assay was 0.2 ml. […] In saturation experiments, increasing concentrations of labeled ligand […] in 50 μl buffer were incubated with 100 μl of homogenates (100-250 μg). Incubation was carried out routinely at room temperature for 90 min. The samples were then filtered through glass fiber filters No. 25 (Schleicher and Schuell, Keene, N.H.) and the bound radioactivity was determined for ^18F in a gamma counter (Packard 5000) with 70% efficiency. Filters containing bound ^3H ligand were dissolved in 7 ml Ecolite(+) overnight and the radioactivity was counted next day in the scintillation counter (Beckman) with 65% counting efficiency. […] Nonspecific binding was determined in the presence of 10 μM tetrabenazine. Both saturation and competition experiments were analyzed using the nonlinear least-square curve fitting program LIGAND. […]

The nature of series [5]: Biodistribution of [18F]6a and [18F]6b in normal mice (iv injection). Format: in vivo, ICR mice. On the procedure:
While under isoflurane anesthesia, 0.15 mL of a 0.1% bovine serum albumin solution containing [^18F]tracers (10-20 μCi) were injected directly into the tail vein of ICR mice (22-25 g, male) The mice (n=3 for each time point) were sacrificed by cervical dislocation at indicated time points post injection. The organs of interest were removed and weighed, and the radioactivity was counted with an automatic gamma counter. The percentage dose per organ was calculated by a comparison of the tissue counts to suitably diluted aliquots of the injected material. Total activities of blood were calculated under the assumption that they were 7% of the total body weight. The % dose/g of samples was calculated by comparing the sample counts with the count of the diluted initial dose.

Series [6] can be described thus: Partition coefficient 1-octanol/phosphate buffer. Format: physicochemical. Conditions: pH 7.4, 1-octanol and phosphate buffer. On the procedure:
Partition coefficients were measured by mixing the [^18F]tracer with 3 g each of 1-octanol and buffer (0.1 M phosphate, pH 7.4) in a test tube. The test tube was vortexed for 3 min at room temperature, followed by centrifugation for 5 min. Two weighed samples (0.5 g each) from the 1-octanol and buffer layers were counted in a well counter. The partition coefficient was determined by calculating the ratio of cpm/g of 1-octanol to that of buffer. Samples from the 1-octanol layer were re-partitioned until consistent partitions of coefficient values were obtained. Values are the mean±SEM of three independent experiments, each in duplicates.

T1 sequence (Q8BRU6 whole entry): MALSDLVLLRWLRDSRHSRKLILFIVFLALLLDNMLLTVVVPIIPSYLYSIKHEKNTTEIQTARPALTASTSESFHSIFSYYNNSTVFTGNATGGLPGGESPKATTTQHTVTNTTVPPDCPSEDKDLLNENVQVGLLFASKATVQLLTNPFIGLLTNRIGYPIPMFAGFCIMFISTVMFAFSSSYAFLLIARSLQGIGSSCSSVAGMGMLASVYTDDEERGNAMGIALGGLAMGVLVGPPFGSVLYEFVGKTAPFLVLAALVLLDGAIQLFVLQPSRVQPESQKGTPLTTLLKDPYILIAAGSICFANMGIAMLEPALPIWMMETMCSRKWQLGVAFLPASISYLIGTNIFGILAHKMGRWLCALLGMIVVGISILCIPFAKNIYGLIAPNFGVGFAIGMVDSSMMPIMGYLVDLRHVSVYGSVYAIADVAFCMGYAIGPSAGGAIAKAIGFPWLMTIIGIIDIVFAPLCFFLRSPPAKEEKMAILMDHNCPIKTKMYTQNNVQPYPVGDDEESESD

Turning to `COc1cc2c(cc1OC)C1CC(O)C(CC(C)C)CN1CC2` (stereo not shown) [[^3H]dihydro-TBZ, 2-hydroxy-3-(2-methylpropyl)-9,10-dimethoxy-1,3,4,6,7,11b-hexahydro-2H-benzo[a]quinolizine], the Kd on monoamine transporter is 2 to 9 nM.
In the case of `COc1cc2c(cc1OCCCF)CCN1CC(CC(C)C)C(O)CC21` (racemic) [[^18F]6b], the “regional labeling in presence of 1 μM (±)TBZ” value at VMAT2 [1] is “completely eliminated”.
On to `COc1cc2c(cc1OCCCF)CCN1CC(CC(C)C)C(O)CC21` (stereo not drawn) [FP-(+)-DTBZ], for which the “uptake in diabetic mice” value in series [2] was “reduced”. The Ki at VMAT2 [3] was 0.1 nM.
Turning to `COc1cc2c(cc1OCC[18F])CCN1CC(CC(C)C)C(O)CC21` (racemic) [[^18F]6a], the Kd on VMAT2 [4] was 0.52 nM. Also, the “remaining in brain (brain washout)” value in series [5] (30 min p.i., normal mice) is above 50%. In series [5] (mice, iv, 2 min), the brain uptake is given as 4.66 % ID/g. Further, in series [5] (mice, iv, time not stated), the ST/CB ratio was 1.9. Also, in series [5] (normal mice, iv, 2 min), the “Organ distribution Blood” value is 2.68 ± 0.37 % dose/g; the “Organ distribution Bone” value is 2.07 ± 0.05 % dose/g; the “Organ distribution Brain” value is 4.66 % dose/g and 4.66 ± 0.78 % dose/g; the “Organ distribution Heart” value worked out at 4.49 ± 0.85 % dose/g. Besides, in series [5] (normal mice, iv, 2 min), the “Organ distribution Kidney” value stood at 10.7 ± 3.06 % dose/g, the “Organ distribution Liver” value was found to be 18.2 ± 4.14 % dose/g, the “Organ distribution Lung” value is 5.83 ± 1.25 % dose/g and the “Organ distribution Muscle” value was found to be 0.66 ± 0.10 % dose/g. In addition, in series [5] (normal mice, iv, 2 min), the “Organ distribution Skin” value was determined as 0.91 ± 0.10 % dose/g, the “Organ distribution Spleen” value is 8.11 ± 0.90 % dose/g, the “Ratio (vs CB) Cortex” value is given as 1.06 and the “Ratio (vs CB) Hippocampus” value worked out at 1.09. For the same compound, in series [5] (normal mice, iv, 2 min), the “Ratio (vs CB) Striatum” value amounted to 1.23, the “Regional brain distribution Cerebellum (CB)” value is on record as 4.42 ± 0.74 % dose/g, the “Regional brain distribution Cortex” value stood at 4.70 ± 0.66 % dose/g and the “Regional brain distribution Hippocampus” value amounted to 4.84 ± 0.72 % dose/g. In addition, the “Regional brain distribution Striatum” value in series [5] (normal mice, iv, 2 min) is 5.46 ± 0.80 % dose/g. For the same compound, in series [5] (normal mice, iv, 15 min), the “Organ distribution Blood” value is 2.05 ± 0.17 % dose/g, the “Organ distribution Bone” value is listed as 2.40 ± 0.23 % dose/g, the “Organ distribution Brain” value was found to be 2.10 ± 0.25 % dose/g and the “Organ distribution Heart” value came to 1.99 ± 0.19 % dose/g. For the same compound, in series [5] (normal mice, iv, 15 min), the “Organ distribution Kidney” value came out at 5.51 ± 1.55 % dose/g, the “Organ distribution Liver” value was 10.5 ± 1.48 % dose/g, the “Organ distribution Lung” value amounted to 2.96 ± 0.30 % dose/g and the “Organ distribution Muscle” value was found to be 1.01 ± 0.02 % dose/g. In series [5] (normal mice, iv, 15 min), the “Organ distribution Skin” value was 1.19 ± 0.03 % dose/g, the “Organ distribution Spleen” value came to 2.77 ± 0.33 % dose/g, the “Ratio (vs CB) Cortex” value was 0.92 and the “Ratio (vs CB) Hippocampus” value is 1.18. Besides, in series [5] (normal mice, iv, 15 min), the “Ratio (vs CB) Striatum” value worked out at 1.91, the “Regional brain distribution Cerebellum (CB)” value is listed as 1.97 ± 0.22 % dose/g, the “Regional brain distribution Cortex” value is on record as 1.82 ± 0.19 % dose/g and the “Regional brain distribution Hippocampus” value is recorded as 2.33 ± 0.30 % dose/g. In addition, the “Regional brain distribution Striatum” value in series [5] (normal mice, iv, 15 min) is given as 3.76 ± 0.51 % dose/g. Besides, in series [5] (normal mice, iv, 30 min), the “Organ distribution Blood” value is reported as 2.27 ± 0.11 % dose/g; the “Organ distribution Bone” value is 3.88 % dose/g and 3.88 ± 0.47 % dose/g; the “Organ distribution Brain” value was found to be 2.09 ± 0.09 % dose/g; the “Organ distribution Heart” value is 2.14 ± 0.11 % dose/g. In addition, in series [5] (normal mice, iv, 30 min), the “Organ distribution Kidney” value was 4.18 ± 0.33 % dose/g, the “Organ distribution Liver” value came out at 8.85 ± 1.34 % dose/g, the “Organ distribution Lung” value was 2.83 ± 0.25 % dose/g and the “Organ distribution Muscle” value was found to be 1.52 ± 0.07 % dose/g. In series [5] (normal mice, iv, 30 min), the “Organ distribution Skin” value is reported as 1.72 ± 0.11 % dose/g, the “Organ distribution Spleen” value worked out at 2.62 ± 0.20 % dose/g, the “Ratio (vs CB) Cortex” value is on record as 1.00 and the “Ratio (vs CB) Hippocampus” value is 1.03. In series [5] (normal mice, iv, 30 min), the “Ratio (vs CB) Striatum” value came out at 1.71, the “Regional brain distribution Cerebellum (CB)” value was determined as 1.97 ± 0.14 % dose/g, the “Regional brain distribution Cortex” value is listed as 1.96 ± 0.14 % dose/g and the “Regional brain distribution Hippocampus” value was 2.02 ± 0.10 % dose/g. For the same compound, the “Regional brain distribution Striatum” value in series [5] (normal mice, iv, 30 min) was determined as 3.37 ± 0.06 % dose/g. Further, in series [5] (normal mice, iv, 1 hr), the “Organ distribution Blood” value was 1.75 ± 0.16 % dose/g, the “Organ distribution Bone” value was 5.84 ± 1.42 % dose/g, the “Organ distribution Brain” value was 1.51 ± 0.20 % dose/g and the “Organ distribution Heart” value was determined as 1.53 ± 0.15 % dose/g. In series [5] (normal mice, iv, 1 hr), the “Organ distribution Kidney” value is 2.27 ± 0.39 % dose/g, the “Organ distribution Liver” value amounted to 3.88 ± 0.40 % dose/g, the “Organ distribution Lung” value is listed as 1.74 ± 0.04 % dose/g and the “Organ distribution Muscle” value is reported as 1.05 ± 0.03 % dose/g. Besides, in series [5] (normal mice, iv, 1 hr), the “Organ distribution Skin” value was found to be 1.23 ± 0.06 % dose/g, the “Organ distribution Spleen” value is reported as 1.56 ± 0.07 % dose/g, the “Ratio (vs CB) Cortex” value is on record as 1.12 and the “Ratio (vs CB) Hippocampus” value turned out to be 1.05. Besides, in series [5] (normal mice, iv, 1 hr), the “Ratio (vs CB) Striatum” value is recorded as 1.71, the “Regional brain distribution Cerebellum (CB)” value worked out at 1.85 ± 0.20 % dose/g, the “Regional brain distribution Cortex” value was found to be 2.07 ± 0.42 % dose/g and the “Regional brain distribution Hippocampus” value was 1.95 ± 0.49 % dose/g. Further, the “Regional brain distribution Striatum” value in series [5] (normal mice, iv, 1 hr) worked out at 3.17 ± 0.79 % dose/g. Also, in series [5] (normal mice, iv, 2 hr), the “Organ distribution Blood” value is on record as 1.38 ± 0.20 % dose/g, the “Organ distribution Bone” value came out at 8.89 ± 0.75 % dose/g, the “Organ distribution Brain” value was found to be 1.13 ± 0.10 % dose/g and the “Organ distribution Heart” value is on record as 1.22 ± 0.13 % dose/g. Further, in series [5] (normal mice, iv, 2 hr), the “Organ distribution Kidney” value worked out at 1.40 ± 0.30 % dose/g, the “Organ distribution Liver” value is 3.36 ± 0.32 % dose/g, the “Organ distribution Lung” value is on record as 1.29 ± 0.19 % dose/g and the “Organ distribution Muscle” value came to 0.73 ± 0.13 % dose/g. For the same compound, in series [5] (normal mice, iv, 2 hr), the “Organ distribution Skin” value is recorded as 0.85 ± 0.10 % dose/g, the “Organ distribution Spleen” value was found to be 1.06 ± 0.10 % dose/g, the “Ratio (vs CB) Cortex” value is given as 0.81 and the “Ratio (vs CB) Hippocampus” value is 1.12. In series [5] (normal mice, iv, 2 hr), the “Ratio (vs CB) Striatum” value worked out at 1.28, the “Regional brain distribution Cerebellum (CB)” value was determined as 1.09 ± 0.03 % dose/g, the “Regional brain distribution Cortex” value is on record as 0.88 ± 0.21 % dose/g and the “Regional brain distribution Hippocampus” value was 1.22 ± 0.18 % dose/g. Besides, the “Regional brain distribution Striatum” value in series [5] (normal mice, iv, 2 hr) is recorded as 1.39 ± 0.03 % dose/g. Further, the logD at 3 min in series [6] was 2.12.

Usually Kd stands for the equilibrium constant for the complex coming apart. What is called Ki is a dissociation constant, usually derived from enzyme kinetics or from competition with a known ligand. The logD is lipophilicity at a set pH, counting ionised and neutral species. Low readings indicate a more hydrophilic compound, high ones a more lipophilic compound.
